Read-outs that look alike come from different tables or passages of the source.
How the values were obtained:
[1] = tested on: GSK-3β; assay: Study of the inhibition of GSK-3β as a function of enzyme-inhibitor pre-incubation time; type: biochemical, human
Description: In order to determine the binding mode of these compounds, different kinetic studies were performed, varying the reaction times and the ATP concentration and the substrate concentration.

[2] = tested on: GSK-3β; type: biochemical, human
Description: The ATP concentrations were varied from 1 to 50 µM, whereas the concentration of the GS-2 peptide was kept constant at 12.5 µM. The concentrations of inhibitor (compound 6) used are shown in the plot.
The kinetic studies conducted by varying the ATP concentration from 1 to 50µM, and the concentration of inhibitor 6 from 5 to 10µM, were performed using the ADP-Glo™ Kinase Assay.

[3] = tested on: GSK-3β; type: biochemical, human; remark: listed apart in the source
Description: The GS-2 concentrations were varied from 15.5 to 100 µM, whereas the ATP concentration was kept constant at 1 µM. The concentrations of inhibitor (compound 6) used are shown in the plot.
On the other hand, we also studied the dependence of GSK-3β activity in the presence of these inhibitors as a function of the concentration of the substrate, the GS-2 peptide, used in the assays.

[4] = target: recombinant human GSK3 enzyme (GSK-3β); type: biochemical; details: Kinase-Glo, 1 μM ATP, 25 μM substrate, 30 min at 30 °C
Description: Measurement of the Inhibition of GSK-3β
The enzyme inhibition assays were performed using the luminometric methodology of kinase-Glo®. The recombinant human GSK3 enzyme (catalogue no. 14-306) was acquired from Upstate (Dundee, UK). The prephosphorylated polypeptide was synthesised by American Peptide Inc. (Sunnyvale, Calif.). The luminescent kinase kit (catalogue no. V6711) was obtained from Promega. The ATP and the other reagents were purchased from Sigma-Aldrich (St. Louis, Mo.).
The assays were performed in buffer using 96-well plates. 10µl of the compound to be assayed (dissolved in DMSO at a concentration of 1 mM, and, in turn, dissolved in buffer to the concentration necessary for the experiment) and 10µl (20 ng) of the enzyme are added to each well, followed by 20µl of buffer containing 25µM of the substrate and 1µM of ATP. […] Following a half-hour incubation at 30° C., the enzymatic reaction is stopped with 40µl of the kinase-Glo® reagent. The luminescence is measured after ten minutes, using a POLARstar Optima multimode reader. The activity is proportional to the difference between the total ATP and the ATP consumed. The inhibitory activities were calculated as a function of the maximum activity, measured in the absence of inhibitor.

[5] = GS-2 15.5 to 100 μM, ATP 1 μM, inhibitor 5 to 10 μM

Row | SMILES | % inhibition of GSK-3β ([1]; [Comp. 6] 5 μM, pre-incubation time E + I 0 min) [%] | % inhibition of GSK-3β ([1]; [Comp. 6] 5 μM, pre-incubation time E + I 5 min) [%] | % inhibition of GSK-3β ([1]; [Comp. 6] 5 μM, pre-incubation time E + I 10 min) [%] | % inhibition of GSK-3β ([1]; [Comp. 6] 10 μM, pre-incubation time E + I 0 min) [%] | % inhibition of GSK-3β ([1]; [Comp. 6] 10 μM, pre-incubation time E + I 5 min) [%] | % inhibition of GSK-3β ([1]; [Comp. 6] 10 μM, pre-incubation time E + I 10 min) [%] | reversibility of GSK-3β inhibition ([1]; different enzyme incubation times, two inhibitor concentrations) | Michaelis-Menten constant (Km) in the presence of the inhibitor [2] | mode of inhibition with respect to ATP ([2]; ATP 1 to 50 μM, GS-2 12.5 μM, inhibitor 5 to 10 μM) | maximum enzyme activity (Vmax) in the presence of the inhibitor ([2]; ATP 1 to 50 μM, inhibitor 5 to 10 μM) | Michaelis-Menten constant (Km) in the presence of the inhibitor [3] | maximum enzyme activity (Vmax) in the presence of the inhibitor [3, 5] | mode of inhibition with respect to substrate GS-2 [3, 5] | IC50 [4] [µM]
1 | CCCCCCCCCCCC(=O)NNC(=O)c1c(O)c2ccccc2n(CC)c1=O [Compound 6, N′-Dodecanoyl-1-ethyl-4-hydroxy-2-oxo-1,2-dihydroquinoline-3-carbohydrazide] | 27.42 | 30.31 | 30.18 | 61.4 | 63.04 | 62.26 | reversible inhibitor | remains invariable | non-ATP-competitive inhibitor | decreases | remains invariable | decreases | substrate-non-competitive inhibitor | 
2 | CCCCCCCCCCCC(=O)N(Cc1ccccc1)NC(=O)c1c(O)c2ccccc2n(Cc2ccccc2)c1=O [Compound 63, N′,1-Dibenzyl-N′-dodecanoyl-4-hydroxy-2-oxo-1,2-dihydroquinoline-3-carbohydrazide] |  |  |  |  |  |  |  |  |  |  |  |  |  | 6.84 ± 0.51
3 | CCCCCCCCCCCC(=O)NNC(=O)c1c(O)c2ccccc2n(C)c1=O [Compound 4, N′-Dodecanoyl-4-hydroxy-1-methyl-2-oxo-1,2-dihydroquinoline-3-carbohydrazide] |  |  |  |  |  |  |  |  |  |  |  |  |  | 7.35 ± 0.23

Source: patent US9585879B2, “Heterocyclic GSK-3 allosteric modulators” (Consejo Superior de Investigaciones Cientificas (CSIC), priority 2011, dated 2017)
